Laboratory results: the NIST ThermoML archive (doi:10.1016/j.jct.2003.11.012)

Legend:
[1] = for vapor or sublimation pressure: Liquid; for Triple point temperature: Adiabatic calorimetry
[2] = Molar enthalpy of transition or fusion
[3] = molar heat capacity at saturation pressure

C1CCC(SC2CCCCC2)CC1 [dicyclohexyl sulfide]
Conditions | Molar enthalpy of transition or fusion [kcal/mol] | Triple point temperature [K] | vapor or sublimation pressure [kPa]
[1], 334.98 K | – | – | 0.0195
[1], 344.99 K | – | – | 0.0387
[1], 354.98 K | – | – | 0.073
[1], 364.98 K | – | – | 0.1323
[1], 374.98 K | – | – | 0.2307
[1], 384.97 K | – | – | 0.3883
[1], 394.98 K | – | – | 0.6338
[1], 404.98 K | – | – | 1.004
[1], 414.96 K | – | – | 1.546
[1], 419.97 K | – | – | 1.902
[1], 424.96 K | – | – | 2.324
[1], 429.96 K | – | – | 2.825
[1], Crystal 1 | – | 284.2 | –
[1], Crystal 2 | – | 264.7 | –
[1], Crystal 3 | – | 41.35 | –
[2], Crystal 1 | 1.358 | – | –
[2], Crystal 2 | 2.392 | – | –

[3]
Conditions | molar heat capacity [J/K/mol]
5 K, Crystal 3 | 0.65
7.076 K, Crystal 3, Vacuum adiabatic calorimetry | 1.83
8.093 K, Crystal 3, Vacuum adiabatic calorimetry | 2.68
9.092 K, Crystal 3, Vacuum adiabatic calorimetry | 3.7
10 K, Crystal 3 | 4.79
10.12 K, Crystal 3, Vacuum adiabatic calorimetry | 4.94
11.22 K, Crystal 3, Vacuum adiabatic calorimetry | 6.32
12.48 K, Crystal 3, Vacuum adiabatic calorimetry | 8.05
13.88 K, Crystal 3, Vacuum adiabatic calorimetry | 10.26
15 K, Crystal 3 | 12.08
15.44 K, Crystal 3, Vacuum adiabatic calorimetry | 12.81
17.17 K, Crystal 3, Vacuum adiabatic calorimetry | 15.8
19.09 K, Crystal 3, Vacuum adiabatic calorimetry | 19.16
20 K, Crystal 3 | 20.77
21.2 K, Crystal 3, Vacuum adiabatic calorimetry | 22.91
23.53 K, Crystal 3, Vacuum adiabatic calorimetry | 27.09
25 K, Crystal 3 | 29.63
26.12 K, Crystal 3, Vacuum adiabatic calorimetry | 31.54
29 K, Crystal 3, Vacuum adiabatic calorimetry | 36.28
30 K, Crystal 3 | 37.98
32.2 K, Crystal 3, Vacuum adiabatic calorimetry | 41.46
33.51 K, Crystal 3, Vacuum adiabatic calorimetry | 43.05
35 K, Crystal 3 | 45.26
35.74 K, Crystal 3, Vacuum adiabatic calorimetry | 46.49
36 K, Crystal 3 | 46.79
37 K, Crystal 3 | 48.49
37.54 K, Crystal 3, Vacuum adiabatic calorimetry | 49.5
38 K, Crystal 3 | 50.1
39 K, Crystal 3 | 53.43
39.08 K, Crystal 3, Vacuum adiabatic calorimetry | 53.4
40 K, Crystal 3 | 59.33
40.2 K, Crystal 3 | 61.57
40.4 K, Crystal 3 | 65.04
40.6 K, Crystal 3 | 70.56
40.8 K, Crystal 3 | 79.24
41 K, Crystal 3 | 92.56
41.1 K, Crystal 3 | 101.56
41.2 K, Crystal 3 | 112.49
41.3 K, Crystal 3 | 125.67
41.35 K, Crystal 2 | 132.62
41.35 K, Crystal 3 | 132.62
41.4 K, Crystal 2 | 124.85
41.5 K, Crystal 2 | 113.3
41.6 K, Crystal 2 | 103.72
41.7 K, Crystal 2 | 95.82
41.8 K, Crystal 2 | 89.37
41.9 K, Crystal 2 | 84.14
42 K, Crystal 2 | 79.94
42.1 K, Crystal 2 | 76.58
42.2 K, Crystal 2 | 73.92
42.3 K, Crystal 2 | 71.85
42.4 K, Crystal 2 | 70.24
42.5 K, Crystal 2 | 68.99
42.6 K, Crystal 2 | 68.04
42.7 K, Crystal 2 | 67.3
42.8 K, Crystal 2 | 66.72
42.9 K, Crystal 2 | 66.27
43 K, Crystal 2 | 65.89
44 K, Crystal 2 | 63.21
44.5 K, Crystal 2, Vacuum adiabatic calorimetry | 62.94
45 K, Crystal 2 | 62.78
45.83 K, Crystal 2, Vacuum adiabatic calorimetry | 62.98
46 K, Crystal 2 | 63.03
48 K, Crystal 2 | 64
48.81 K, Crystal 2, Vacuum adiabatic calorimetry | 64.58
50 K, Crystal 2 | 65.53
53.62 K, Crystal 2, Vacuum adiabatic calorimetry | 68.84
54.45 K, Crystal 2, Vacuum adiabatic calorimetry | 69.65
55 K, Crystal 2 | 70.15
58.57 K, Crystal 2, Vacuum adiabatic calorimetry | 73.26
60 K, Crystal 2 | 74.51
64.06 K, Crystal 2, Vacuum adiabatic calorimetry | 78.07
70 K, Crystal 2 | 83.42
70.24 K, Crystal 2, Vacuum adiabatic calorimetry | 83.65
77.05 K, Crystal 2, Vacuum adiabatic calorimetry | 89.46
80 K, Crystal 2 | 91.91
82.72 K, Crystal 2, Vacuum adiabatic calorimetry | 94.2
84.66 K, Crystal 2, Vacuum adiabatic calorimetry | 95.88
89.87 K, Crystal 2, Vacuum adiabatic calorimetry | 100.11
90 K, Crystal 2 | 100.24
93.06 K, Crystal 2, Vacuum adiabatic calorimetry | 102.76
98.25 K, Crystal 2, Vacuum adiabatic calorimetry | 106.88
100 K, Crystal 2 | 108.32
101.97 K, Crystal 2, Vacuum adiabatic calorimetry | 109.92
107.36 K, Crystal 2, Vacuum adiabatic calorimetry | 114.09
117.01 K, Crystal 2, Vacuum adiabatic calorimetry | 121.51
120 K, Crystal 2 | 123.79
126.84 K, Crystal 2, Vacuum adiabatic calorimetry | 128.96
136.8 K, Crystal 2, Vacuum adiabatic calorimetry | 136.33
140 K, Crystal 2 | 138.69
146.83 K, Crystal 2, Vacuum adiabatic calorimetry | 143.7
156.79 K, Crystal 2, Vacuum adiabatic calorimetry | 151.02
160 K, Crystal 2 | 153.38
167.83 K, Crystal 2, Vacuum adiabatic calorimetry | 159.16
179.9 K, Crystal 2, Vacuum adiabatic calorimetry | 168.19
180 K, Crystal 2 | 168.28
192 K, Crystal 2, Vacuum adiabatic calorimetry | 177.65
200 K, Crystal 2 | 184.16
204.1 K, Crystal 2, Vacuum adiabatic calorimetry | 187.6
212.64 K, Crystal 2, Vacuum adiabatic calorimetry | 194.77
216.18 K, Crystal 2, Vacuum adiabatic calorimetry | 197.93
220 K, Crystal 2 | 201.6
223.24 K, Crystal 2, Vacuum adiabatic calorimetry | 204.46
227.23 K, Crystal 2, Vacuum adiabatic calorimetry | 208.11
229.69 K, Crystal 2, Vacuum adiabatic calorimetry | 210.53
233.56 K, Crystal 2, Vacuum adiabatic calorimetry | 214.23
239.46 K, Crystal 2, Vacuum adiabatic calorimetry | 220.49
240 K, Crystal 2 | 221.21
243.62 K, Crystal 2, Vacuum adiabatic calorimetry | 224.96
245.76 K, Crystal 2, Vacuum adiabatic calorimetry | 227.13
249.49 K, Crystal 2, Vacuum adiabatic calorimetry | 232.29
250 K, Crystal 2 | 231.72
252.11 K, Crystal 2, Vacuum adiabatic calorimetry | 235.33
255.1 K, Crystal 2, Vacuum adiabatic calorimetry | 241.32
255.37 K, Crystal 2, Vacuum adiabatic calorimetry | 242.85
256.11 K, Crystal 2, Vacuum adiabatic calorimetry | 244.36
258.04 K, Crystal 2, Vacuum adiabatic calorimetry | 251.78
258.75 K, Crystal 2, Vacuum adiabatic calorimetry | 257.57
260 K, Crystal 2 | 264.46
264.7 K, Crystal 1 | 315.22
264.7 K, Crystal 2 | 316.1
267.11 K, Crystal 1, Vacuum adiabatic calorimetry | 316.81
270 K, Crystal 1 | 318.74
270.5 K, Crystal 1, Vacuum adiabatic calorimetry | 319.58
270.99 K, Crystal 1, Vacuum adiabatic calorimetry | 319.82
272.57 K, Crystal 1, Vacuum adiabatic calorimetry | 320.97
274.72 K, Crystal 1, Vacuum adiabatic calorimetry | 322.6
275.18 K, Crystal 1, Vacuum adiabatic calorimetry | 322.61
276.68 K, Crystal 1, Vacuum adiabatic calorimetry | 324.34
277.72 K, Crystal 1, Vacuum adiabatic calorimetry | 325.42
278.97 K, Crystal 1, Vacuum adiabatic calorimetry | 327.22
280 K, Crystal 1 | 325.48
284.2 K, Crystal 1 | 328.37
284.2 K, Liquid | 317.32
298.15 K, Liquid | 326.14
300 K, Liquid | 327.33
320 K, Liquid | 340.79
340 K, Liquid | 354.76
360 K, Liquid | 369.3
380 K, Liquid | 384.16
400 K, Liquid | 399.24
420 K, Liquid | 414.4
440 K, Liquid | 429.57

[3], Liquid, Vacuum adiabatic calorimetry
Conditions | molar heat capacity [J/K/mol]
287.6 K | 319.48
289.37 K | 320.58
290.6 K | 321.35
296.18 K | 324.86
296.81 K | 325.28
307.92 K | 332.58
321.65 K | 341.93
336.79 K | 352.46
352.3 K | 363.66
367.76 K | 375.02
383 K | 386.42
398.09 K | 397.79
413.1 K | 409.16
428.06 K | 420.5
439.99 K | 429.5
